# Patent US8741944B2, “Anti-infective agents against intracellular pathogens” (priority 2007, dated 2014)
# Experiments:
# [1] = test system: M14 (Melanoma); assay: NCI DTP tumor cell line screen (SRB), M14
# Protocol: (§1) For a typical screening experiment, cells are inoculated into 96 well microtiter plates in 100 μL at plating densities ranging from 5,000 to 40,000 cells/well depending on the doubling time of individual cell lines. After cell inoculation, the microtiter plates are incubated at 37° C., 5% CO2, 95% air and 100% relative humidity for 24 h prior to addition of experimental drugs.
# (§2) After 24 h, two plates of each cell line are fixed in situ with TCA, to represent a measurement of the cell population for each cell line at the time of drug addition (Tz). Experimental drugs are solubilized in dimethyl sulfoxide at 400-fold the desired final maximum test concentration and stored frozen prior to use. At the time of drug addition, an aliquot of frozen concentrate is thawed and diluted to twice the desired final maximum test concentration with complete medium containing 50 μg/ml gentamicin. Additional four, 10-fold or ½ log serial dilutions are made to provide a total of five drug concentrations plus control. Aliquots of 100 μl of these different drug dilutions are added to the appropriate microtiter wells already containing 100 μl of medium, resulting in the required final drug concentrations.
# (§3) Following drug addition, the plates are incubated for an additional 48 h at 37° C., 5% CO2, 95% air, and 100% relative humidity. For adherent cells, the assay is terminated by the addition of cold TCA. Cells are fixed in situ by the gentle addition of 50 μl of cold 50% (w/v) TCA (final concentration, 10% TCA) and incubated for 60 minutes at 4° C. The supernatant is discarded, and the plates are washed five times with tap water and air dried. Sulforhodamine B (SRB) solution (1001) at 0.4% (w/v) in 1% acetic acid is added to each well, and plates are incubated for 10 minutes at room temperature. After staining, unbound dye is removed by washing five times with 1% acetic acid and the plates are air dried. Bound stain is subsequently solubilized with 10 mM trizma base, and the absorbance is read on an automated plate reader at a wavelength of 515 nm. For suspension cells, the methodology is the same except that the assay is terminated by fixing settled cells at the bottom of the wells by gently adding 50 μl of 80% TCA (final concentration, 16% TCA). Using the seven absorbance measurements [time zero, (Tz), control growth, (C), and test growth in the presence of drug at the five concentration levels (Ti)], the percentage growth is calculated at each of the drug concentrations levels. Percentage growth inhibition is calculated as: [(Ti−Tz)/(C−Tz)]×100 for concentrations for which Ti>/=Tz [(Ti−Tz)/Tz]×100 for concentrations for which Ti<Tz
# (§4) Three dose response parameters are calculated for each experimental agent. […] The drug concentration resulting in total growth inhibition (TGI) is calculated from Ti=Tz. […] Values are calculated for each of these three parameters if the level of activity is reached; however, if the effect is not reached or is exceeded, the value for that parameter is expressed as greater or less than the maximum or minimum concentration tested.
# [2] = test system: KM12 (Colon Cancer); assay: NCI DTP tumor cell line screen (SRB), KM12
# Protocol: as §1, §2, §3, §4
# [3] = test system: ACHN (Renal Cancer); assay: NCI DTP tumor cell line screen (SRB), ACHN
# Protocol: as §1, §2, §3, §4
# [4] = test system: MCF7 (Breast Cancer); assay: NCI DTP tumor cell line screen (SRB), MCF7; details: MCF7
# Protocol: as §1, §2, §3, §4
# [5] = test system: 786-0 (Renal Cancer); assay: NCI DTP tumor cell line screen (SRB), 786-0
# Protocol: as §1, §2, §3, §4
# [6] = test system: TK-10 (Renal Cancer); assay: NCI DTP tumor cell line screen (SRB), TK-10
# Protocol: as §1, §2, §3, §4
# [7] = test system: T-47D (Breast Cancer); assay: NCI DTP tumor cell line screen (SRB), T-47D
# Protocol: as §1, §2, §3, §4
# [8] = test system: HOP-62 (Non-Small Cell Lung Cancer); assay: NCI DTP tumor cell line screen (SRB), HOP-62
# Protocol: as §1, §2, §3, §4
structure (smiles),measurement,setting,value
"NCC(=O)Nc1ccc(-n2nc(C(F)(F)F)cc2-c2ccc3c(ccc4ccccc43)c2)cc1 [Compound 70, 2-Amino-N-{4-[5-(2-phenanthrenyl)-3-(trifluoromethyl)-1H-pyrazol-1-yl]-phenyl}-acetamide]",TGI,[1],5.37E−06
same,Mean Optical Densities,[1]; Log10 Concentration −4.0,0.256
same,Mean Optical Densities,[1]; Log10 Concentration −5.0,0.211
same,Percent Growth,[1]; Log10 Concentration −5.0,−33%
same,Mean Optical Densities,[1]; Log10 Concentration −6.0,0.916
same,Percent Growth,[1]; Log10 Concentration −6.0,90%
same,Mean Optical Densities,[1]; Log10 Concentration −7.0,0.974
same,Percent Growth,[1]; Log10 Concentration −7.0,98%
same,Mean Optical Densities,[1]; Log10 Concentration −8.0,0.975
same,Percent Growth,[1]; Log10 Concentration −8.0,98%
same,TGI,[2],2.67E−06
same,Mean Optical Densities,[2]; Log10 Concentration −4.0,0.264
same,Mean Optical Densities,[2]; Log10 Concentration −5.0,0.146
same,Percent Growth,[2]; Log10 Concentration −5.0,−73%
same,Mean Optical Densities,[2]; Log10 Concentration −6.0,1.425
same,Percent Growth,[2]; Log10 Concentration −6.0,54%
same,Mean Optical Densities,[2]; Log10 Concentration −7.0,2.044
same,Percent Growth,[2]; Log10 Concentration −7.0,91%
same,Mean Optical Densities,[2]; Log10 Concentration −8.0,2.151
same,Percent Growth,[2]; Log10 Concentration −8.0,98%
same,TGI,[3],3.45E−06
same,Mean Optical Densities,[3]; Log10 Concentration −4.0,0.313
same,Mean Optical Densities,[3]; Log10 Concentration −5.0,0.150
same,Percent Growth,[3]; Log10 Concentration −5.0,−60%
same,Mean Optical Densities,[3]; Log10 Concentration −6.0,0.829
same,Percent Growth,[3]; Log10 Concentration −6.0,70%
same,Mean Optical Densities,[3]; Log10 Concentration −7.0,1.037
same,Percent Growth,[3]; Log10 Concentration −7.0,102%
same,Mean Optical Densities,[3]; Log10 Concentration −8.0,0.985
same,Percent Growth,[3]; Log10 Concentration −8.0,94%
same,TGI,[4],2.72E−06
same,Mean Optical Densities,[4]; Log10 Concentration −4.0,0.255
same,Mean Optical Densities,[4]; Log10 Concentration −5.0,0.196
same,Mean Optical Densities,[4]; Log10 Concentration −6.0,0.982
same,Mean Optical Densities,[4]; Log10 Concentration −7.0,1.541
same,Mean Optical Densities,[4]; Log10 Concentration −8.0,1.566
same,TGI,[5],2.85E−06
same,Mean Optical Densities,[5]; Log10 Concentration −4.0,0.299
same,Mean Optical Densities,[5]; Log10 Concentration −5.0,0.181
same,Percent Growth,[5]; Log10 Concentration −5.0,−72%
same,Mean Optical Densities,[5]; Log10 Concentration −6.0,1.440
same,Percent Growth,[5]; Log10 Concentration −6.0,60%
same,Mean Optical Densities,[5]; Log10 Concentration −7.0,1.897
same,Percent Growth,[5]; Log10 Concentration −7.0,95%
same,Mean Optical Densities,[5]; Log10 Concentration −8.0,2.012
same,Percent Growth,[5]; Log10 Concentration −8.0,104%
same,TGI,[6],3.10E−06
same,Mean Optical Densities,[6]; Log10 Concentration −4.0,0.200
same,Mean Optical Densities,[6]; Log10 Concentration −5.0,0.138
same,Percent Growth,[6]; Log10 Concentration −5.0,−80%
same,Mean Optical Densities,[6]; Log10 Concentration −6.0,1.304
same,Percent Growth,[6]; Log10 Concentration −6.0,77%
same,Mean Optical Densities,[6]; Log10 Concentration −7.0,1.492
same,Percent Growth,[6]; Log10 Concentration −7.0,100%
same,Mean Optical Densities,[6]; Log10 Concentration −8.0,1.512
same,Percent Growth,[6]; Log10 Concentration −8.0,102%
same,TGI,[7],4.21E−06
same,Mean Optical Densities,[7]; Log10 Concentration −4.0,0.238
same,Mean Optical Densities,[7]; Log10 Concentration −5.0,0.205
same,Percent Growth,[7]; Log10 Concentration −5.0,−52%
same,Mean Optical Densities,[7]; Log10 Concentration −6.0,0.935
same,Percent Growth,[7]; Log10 Concentration −6.0,86%
same,Mean Optical Densities,[7]; Log10 Concentration −7.0,1.071
same,Percent Growth,[7]; Log10 Concentration −7.0,109%
same,Mean Optical Densities,[7]; Log10 Concentration −8.0,0.921
same,Percent Growth,[7]; Log10 Concentration −8.0,84%
same,TGI,[8],3.01E−06
same,Mean Optical Densities,[8]; Log10 Concentration −4.0,0.217
same,Mean Optical Densities,[8]; Log10 Concentration −5.0,0.155
same,Percent Growth,[8]; Log10 Concentration −5.0,−70%
same,Mean Optical Densities,[8]; Log10 Concentration −6.0,1.075
same,Percent Growth,[8]; Log10 Concentration −6.0,64%
same,Mean Optical Densities,[8]; Log10 Concentration −7.0,1.330
same,Percent Growth,[8]; Log10 Concentration −7.0,93%
same,Mean Optical Densities,[8]; Log10 Concentration −8.0,1.310
same,Percent Growth,[8]; Log10 Concentration −8.0,90%
